Results: patent US20110053953A1, “AZA-Isoindolones and Their Use as Metabotropic Glutamate Receptor Potentiators - 613” (priority 2007, published 2011)

Molecular target: T1, human mGluR2 (Homo sapiens, UniProt Q14416)
T1 construct: If the GTPgammaS assay was used: nothing is fused
Assay: mGluR2 potentiator functional assays (FLIPR calcium mobilization or [35S]-GTPγS binding; not stated which)
Assay type: cell-based
Conditions: active in assays described herein; allosteric activator (potentiator) activity at mGluR2, assay not specified
Source text: The pharmacological properties of the compounds of the invention can be analyzed using standard assays for functional activity. Examples of glutamate receptor assays are well known in the art as described in, for example, Aramori et al., 1992, Neuron, 8:757; Tanabe et al., 1992, Neuron, 8:169; Miller et al., 1995, J. Neuroscience, 15:6103; Balazs, et al., 1997, J. Neurochemistry, 1997, 69:151. The methodology described in these publications is incorporated herein by reference. Conveniently, the compounds of the invention can be studied by means of an assay that measures the mobilization of intracellular calcium, [Ca^2+]i in cells expressing mGluR2.
Fluorometric Imaging Plate Reader (FLIPR) analysis was used to detect allosteric activators of mGluR2 via calcium mobilization. A clonal HEK 293 cell line expressing a chimeric mGluR2/CaR construct comprising the extracellular and transmembrane domains of human mGluR2 and the intracellular domain of the human calcium receptor, fused to the promiscuous chimeric protein G[…]qi5 was used. […]
FLIPR experiments were done using a laser setting of 0.8 W and a 0.4 second CCD camera shutter speed. […] An addition of test compound (0.01 μM to 30 μM in duplicate) was made after 10 seconds of baseline fluorescent readings were recorded on FLIPR. Fluorescent signals were then recorded for an additional 75 seconds at which point a second addition of DCG-IV (0.2 μM) was made and fluorescent signals were recorded for an additional 65 seconds. Fluorescent signals were measured as the peak height of the response within the sample period. Data was analyzed using Assay Explorer, and EC50 and Emax values (relative to maximum DCG-IV effect) were calculated using a four parameter logistic equation.
A [^35S]-GTPγS binding assay was used to functionally assay mGluR2 receptor activation. The allosteric activator activity of compounds at the human mGluR2 receptor were measured using a [^35S]-GTPγS binding assay with membranes prepared from CHO cells which stably express the human mGluR2. […]

T1 sequence (Q14416 19-819 limits assumed): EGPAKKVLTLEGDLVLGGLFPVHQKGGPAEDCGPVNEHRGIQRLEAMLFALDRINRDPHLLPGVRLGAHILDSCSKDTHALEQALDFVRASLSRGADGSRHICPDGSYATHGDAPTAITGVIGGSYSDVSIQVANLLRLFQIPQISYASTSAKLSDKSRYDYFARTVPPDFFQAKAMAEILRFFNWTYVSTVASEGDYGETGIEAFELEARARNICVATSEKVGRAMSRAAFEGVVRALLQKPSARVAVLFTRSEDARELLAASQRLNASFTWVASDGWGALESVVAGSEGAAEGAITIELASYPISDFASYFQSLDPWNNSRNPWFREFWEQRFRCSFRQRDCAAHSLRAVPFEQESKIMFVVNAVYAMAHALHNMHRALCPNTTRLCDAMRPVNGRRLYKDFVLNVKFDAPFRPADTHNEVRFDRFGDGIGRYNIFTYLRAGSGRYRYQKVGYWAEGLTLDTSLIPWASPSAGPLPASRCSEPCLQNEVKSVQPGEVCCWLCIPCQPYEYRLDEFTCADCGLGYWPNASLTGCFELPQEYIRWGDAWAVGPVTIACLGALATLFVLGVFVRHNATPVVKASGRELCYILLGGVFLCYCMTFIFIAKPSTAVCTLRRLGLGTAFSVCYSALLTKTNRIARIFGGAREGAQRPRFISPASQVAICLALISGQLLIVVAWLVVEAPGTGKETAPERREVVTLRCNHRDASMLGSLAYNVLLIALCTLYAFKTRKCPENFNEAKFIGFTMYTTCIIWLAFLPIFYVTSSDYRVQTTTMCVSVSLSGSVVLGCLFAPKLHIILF

| SMILES | EC50 [µM] |
| --- | --- |
| Cc1nc(-c2cccc(N(S(C)(=O)=O)S(C)(=O)=O)c2)cc2c1C(=O)N(Cc1ccc(OC(F)(F)F)cc1)C2 [Compound 9, 6-(3-dimethylsulphanomidephenyl)-4-methyl-2-[4-(trifluoromethoxy)benzyl]-1,2-dihydro-3H-pyrrolo[3,4-c]pyridin-3-one] | 0.16 |
| Cc1nc(-c2cccc(NS(C)(=O)=O)c2)cc2c1C(=O)N(Cc1ccc(OC(F)(F)F)cc1)C2 [Compound 13, 6-(3-methylsulphanomidephenyl)-4-methyl-2-[4-(trifluoromethoxy)benzyl]-1,2-dihydro-3H-pyrrolo[3,4-c]pyridin-3-one] | 1.33 |
| Cc1nc(-c2cccc(NC=O)c2)cc2c1C(=O)N(CC1CC1)C2 [Compound 20, {3-[2-(cyclopropylmethyl)-4-methyl-3-oxo-2,3-dihydro-1H-pyrrolo[3,4-c]pyridin-6-yl]phenyl}formamide] | 0.67 |
